The text below walks through data of patent US10208019B2, “GLP-1 receptor agonists and uses thereof” (Pfizer Inc., priority 2016, dated 2019).

Broadly, the EC50 is the concentration giving half of the maximal effect. By Emax is commonly meant the maximal effect, on the per cent scale that the assay sets.

Assay [1] deals with human GLP-1R (Homo sapiens (Human), UniProt P43220, L260F). Description: CHO GLP-1R Clone C6—Assay 2: HTRF cAMP cell-based functional agonist assay (low GLP-1R density). The conditions noted are these: for EC50: CHO GLP-1R Clone C6, cAMP HTRF, geometric mean; for Emax: CHO GLP-1R Clone C6, relative to saturating concentration of full agonist GLP-1 (1 μM), arithmetic mean, read-out: Assay 2 Emax (%). A general note: TR-FRET usually uses a lanthanide donor and a delayed reading to cut background.
Sequence of human GLP-1R (Homo sapiens (Human), UniProt P43220, L260F) (P43220 24-463 L260F): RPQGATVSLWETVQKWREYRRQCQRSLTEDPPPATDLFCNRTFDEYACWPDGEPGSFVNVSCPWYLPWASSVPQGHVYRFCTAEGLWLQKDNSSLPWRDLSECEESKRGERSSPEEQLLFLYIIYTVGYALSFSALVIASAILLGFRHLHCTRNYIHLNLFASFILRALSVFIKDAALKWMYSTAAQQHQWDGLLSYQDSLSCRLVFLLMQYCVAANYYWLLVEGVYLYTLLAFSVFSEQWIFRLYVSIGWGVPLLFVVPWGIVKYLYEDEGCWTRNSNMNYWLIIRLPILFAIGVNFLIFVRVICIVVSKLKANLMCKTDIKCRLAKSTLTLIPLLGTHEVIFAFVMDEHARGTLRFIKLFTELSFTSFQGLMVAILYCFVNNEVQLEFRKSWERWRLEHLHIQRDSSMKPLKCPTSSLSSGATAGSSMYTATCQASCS

Assay [2] addresses human GLP-1R (Homo sapiens, UniProt P43220, G168S). Nature of the assay: CHO GLP-1R Clone H6—Assay 1: HTRF cAMP cell-based functional agonist assay (high GLP-1R density). The conditions noted are these: for EC50: read-out: Assay 1 EC50, CHO GLP-1R Clone H6, cAMP HTRF, geometric mean; for Emax: read-out: Assay 1 Emax (%), CHO GLP-1R Clone H6, relative to saturating concentration of full agonist GLP-1 (1 μM), arithmetic mean.

Sequence of human GLP-1R (Homo sapiens, UniProt P43220, G168S) (P43220 24-463 G168S limits assumed): as the sequence (P43220 24-463 L260F) above, with G145S, F237L counted along it

Regarding `N#Cc1ccc(COc2cccc(C3CCN(Cc4nc5ccc(C(=O)O)cc5n4C[C@@H]4CCO4)CC3)n2)cc1` [Example 10A-78, 2-[(4-{6-[(4-cyanobenzyl)oxy]pyridin-2-yl}piperidin-1-yl)methyl]-1-[(2S)-oxetan-2-ylmethyl]-1H-benzimidazole-6-carboxylic acid], on human GLP-1R [1], the EC50 stood at 28 nM and the maximal effect (Emax) stood at 88%. At human GLP-1R [2], the EC50 was found to be 1.6 nM and the maximal effect (Emax) came out at 83%.

In the case of `CC1(Cn2c(CN3CCC(c4cccc(OCc5ccc(Cl)cc5F)n4)CC3)nc3ccc(C(=O)O)cc32)CCOC1` (stereo not shown) [Example 11A-14, 2-[(4-{6-[(4-chloro-2-fluorobenzyl)oxy]pyridin-2-yl}piperidin-1-yl)methyl]-1-[(3-methyltetrahydrofuran-3-yl)methyl]-1H-benzimidazole-6-carboxylic acid], the results for the EC50 at human GLP-1R [1] and at human GLP-1R [2] were 230 nM and 8.1 nM, respectively. The Emax on human GLP-1R [1] is 77%; at human GLP-1R [2] it was 64%.

With `O=C(O)c1ccc2nc(CN3CCC(c4cccc(OCc5ccc(Cl)cc5F)n4)CC3)n(Cc3cn[nH]c3)c2c1` [Example 11A-15, 2-[(4-{6-[(4-chloro-2-fluorobenzyl)oxy]pyridin-2-yl}piperidin-1-yl)methyl]-1-(1H-pyrazol-4-ylmethyl)-1H-benzimidazole-6-carboxylic acid], at human GLP-1R [1], the EC50 was determined as 94 nM and the Emax turned out to be 92%. In addition, at human GLP-1R [2], the EC50 is 9.4 nM and the Emax came out at 69%.

For the compound `O=C(O)c1ccc2nc(CN3CCC(c4cccc(OCc5ccc(Cl)cc5F)n4)CC3)n(CC3CCC3)c2c1` [Example 11A-16, 2-[(4-{6-[(4-chloro-2-fluorobenzyl)oxy]pyridin-2-yl}piperidin-1-yl)methyl]-1-(cyclobutylmethyl)-1H-benzimidazole-6-carboxylic acid], at human GLP-1R [1], the EC50 was determined as 410 nM and the Emax came out at 75%. Moreover, at human GLP-1R [2], the EC50 turned out to be 11 nM and the Emax worked out at 71%.

In the case of `O=C(O)c1ccc2nc(CN3CCC(c4cccc(OCc5ccc(Cl)cc5F)n4)CC3)n(CCn3cncn3)c2c1` [Example 11A-17, 2-[(4-{6-[(4-chloro-2-fluorobenzyl)oxy]pyridin-2-yl}piperidin-1-yl)methyl]-1-[2-(1H-1,2,4-triazol-1-yl)ethyl]-1H-benzimidazole-6-carboxylic acid], at human GLP-1R [1], a half-maximal effect (EC50) was put at 380 nM and the Emax is 96%. For the same compound, on human GLP-1R [2], the EC50 came to 11 nM and the Emax was determined as 65%.

Turning to `CCOC(C)Cn1c(CN2CCC(c3cccc(OCc4ccc(Cl)cc4F)n3)CC2)nc2ccc(C(=O)O)cc21` (stereo not shown) [Example 11A-18, 2-[(4-{6-[(4-chloro-2-fluorobenzyl)oxy]pyridin-2-yl}piperidin-1-yl)methyl]-1-(2-ethoxypropyl)-1H-benzimidazole-6-carboxylic acid], the figures for the EC50 on human GLP-1R [1] and at human GLP-1R [2] were 270 nM and 14 nM, respectively. For the same compound, the maximal response (Emax) on human GLP-1R [1] was 92%; on human GLP-1R [2] it was 80%.

Take `COCCn1cnnc1Cn1c(CN2CCC(c3cccc(OCc4ccc(Cl)cc4F)n3)CC2)nc2ccc(C(=O)O)cc21` [Example 11A-19, 2-[(4-{6-[(4-chloro-2-fluorobenzyl)oxy]pyridin-2-yl}piperidin-1-yl)methyl]-1-{[4-(2-methoxyethyl)-4H-1,2,4-triazol-3-yl]methyl}-1H-benzimidazole-6-carboxylic acid]: the EC50 was determined as 230 nM at human GLP-1R [1] and 15 nM at human GLP-1R [2]. In addition, the values for the Emax on human GLP-1R [1] and on human GLP-1R [2] were 110% and 83%, respectively.

Regarding `O=C(O)c1ccc2nc(CN3CCC(c4cccc(OCc5ccc(Cl)cc5F)n4)CC3)n(CCN3CCOC3=O)c2c1` [Example 11A-20], the EC50 on human GLP-1R [1] is 270 nM; on human GLP-1R [2] it was 15 nM.

For `Cn1nccc1Cn1c(CN2CCC(c3cccc(OCc4ccc(Cl)cc4F)n3)CC2)nc2ccc(C(=O)O)cc21` [Example 11A-21, 2-[(4-{6-[(4-chloro-2-fluorobenzyl)oxy]pyridin-2-yl}piperidin-1-yl)methyl]-1-[(1-methyl-1H-pyrazol-5-yl)methyl]-1H-benzimidazole-6-carboxylic acid], the values for the EC50 on human GLP-1R [1] and at human GLP-1R [2] were 270 nM and 18 nM, respectively. The Emax at human GLP-1R [1] turned out to be 83%; on human GLP-1R [2], 82%.

Regarding `COC(C)(C)Cn1c(CN2CCC(c3cccc(OCc4ccc(Cl)cc4F)n3)CC2)nc2ccc(C(=O)O)cc21` [Example 11A-22, 2-[(4-{6-[(4-chloro-2-fluorobenzyl)oxy]pyridin-2-yl}piperidin-1-yl)methyl]-1-(2-methoxy-2-methylpropyl)-1H-benzimidazole-6-carboxylic acid], the EC50 at human GLP-1R [1] was 200 nM; at human GLP-1R [2], 21 nM. Further, the figures for the Emax on human GLP-1R [1] and on human GLP-1R [2] were 81% and 82%, respectively.

Regarding `O=C(O)c1ccc2nc(CN3CCC(c4cccc(OCc5ccc(Cl)cc5F)n4)CC3)n(Cc3c[nH]nn3)c2c1` [Example 11A-23, 2-[(4-{6-[(4-chloro-2-fluorobenzyl)oxy]pyridin-2-yl}piperidin-1-yl)methyl]-1-(1H-1,2,3-triazol-4-ylmethyl)-1H-benzimidazole-6-carboxylic acid], at human GLP-1R [1], a half-maximal effect (EC50) was put at 330 nM and the Emax amounted to 96%. At human GLP-1R [2], the EC50 was found to be 25 nM and the maximal response (Emax) was found to be 78%.

As for `O=C(O)c1ccc2nc(CN3CCC(c4cccc(OCc5ccc(Cl)cc5F)n4)CC3)n(Cc3cc[nH]n3)c2c1` [Example 11A-24, 2-[(4-{6-[(4-chloro-2-fluorobenzyl)oxy]pyridin-2-yl}piperidin-1-yl)methyl]-1-(1H-pyrazol-3-ylmethyl)-1H-benzimidazole-6-carboxylic acid], at human GLP-1R [1], the EC50 turned out to be 450 nM and the maximal effect (Emax) was found to be 89%. At human GLP-1R [2], the EC50 is 28 nM and the Emax came out at 80%.

On to `O=C(O)c1ccc2nc(CN3CCC(c4cccc(OCc5ccc(Cl)cc5F)n4)CC3)n(Cc3nnc[nH]3)c2c1` [Example 11A-25, 2-[(4-{6-[(4-chloro-2-fluorobenzyl)oxy]pyridin-2-yl}piperidin-1-yl)methyl]-1-(4H-1,2,4-triazol-3-ylmethyl)-1H-benzimidazole-6-carboxylic acid], for which, at human GLP-1R [1], a half-maximal response (EC50) required 360 nM and the Emax stood at 89%. Further, on human GLP-1R [2], the EC50 worked out at 30 nM and the Emax came to 77%.

On to `O=C(O)c1ccc2nc(CN3CCC(c4cccc(OCc5ccc(Cl)cc5F)n4)CC3)n(C3CCOC3)c2c1` (stereo not shown) [Example 11A-26, 2-[(4-{6-[(4-chloro-2-fluorobenzyl)oxy]pyridin-2-yl}piperidin-1-yl)methyl]-1-(tetrahydrofuran-3-yl)-1H-benzimidazole-6-carboxylic acid], for which, at human GLP-1R [1], the EC50 was 1100 nM and the Emax is 79%. Also, at human GLP-1R [2], the EC50 was 36 nM and the Emax is 73%.

For the compound `CC(F)(F)Cn1c(CN2CCC(c3cccc(OCc4ccc(Cl)cc4F)n3)CC2)nc2ccc(C(=O)O)cc21` [Example 11A-27, 2-[(4-{6-[(4-chloro-2-fluorobenzyl)oxy]pyridin-2-yl}piperidin-1-yl)methyl]-1-(2,2-difluoropropyl)-1H-benzimidazole-6-carboxylic acid], the half-maximal effective concentration (EC50) came to 490 nM on human GLP-1R [1] and 44 nM at human GLP-1R [2]. The Emax on human GLP-1R [1] amounted to 98%; on human GLP-1R [2] it was 72%.
